Assay results reported in patent publication US11992494B2, “Cyclopentathiophene carboxamide derivatives as platelet activating factor receptor antagonists” (Boehringer Ingelheim International GmbH, priority 2021, dated 2024).
Like-named read-outs stand apart in the source and are kept apart here.

Legend:
PAF = PAF (Homo sapiens, UniProt P25105); settings: see EP0480455A1, cited from earlier work
PAFR = PAFR (Homo sapiens, UniProt P25105); assay: cellular HTRF IP1 assay: inhibition of PAFR activation by PAF C-16 ligand (endpoint assay); format: cell-based; set-up: expressed in transfected cells; host or cells: HEK293
Procedure, shortened: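 HEK293 cells overexpressing human PAFR were preincubated with compound (1% DMSO) 90 min at 37°C, then challenged with 11 nM PAF C-16 for 60 min in HBSS/20 mM HEPES pH 7.4/50 mM LiCl/0.1% BSA. IP1 accumulation read by HTRF (665/620 nm emission).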

[1] = Evaluation of chemical stability (solution state stress conditions, HPLC); format: physicochemical; settings: 40° C., ACN/0.1M aq. HCl (pH ca. 1.2)
Experimental: Evaluation of Chemical Stability Within solution state stability studies the influence of temperature, pH and light exposure are analyzed. Stress conditions are applied in order to get a fast signal of possible chemical decomposition via hydrolytical, oxidative or photodegradative pathways. […] The stressed/stored samples are analysed by a stability indicative chiral or achiral HPLC-method, as appropriate. Degradation studies are used to simulate chemical stability of compounds in the acidic part of the gastrointestinal tract. The compounds of the invention show high chemical stability in acidic aqueous media (pH value ca. 1.2) what makes their application as medical drugs to treat human diseases less restricted and troublesome. […] Compound is dissolved in an HPLC vial in a mixture of acetonitrile/0.1 M aqueous HCl (ratio: 2:3; pH ca. 1.2) to get a concentration of approximately 0.25 mg/ml. The vial is then transferred into an HPLC autosampler system and maintained at the desired temperature of, e.g., 40° C. A first sample is taken and injected immediately into a standard HPLC system with a UV DAD detector. A further sample is injected after 24 hours. Amount of degraded compound is measured by determining the recovery rate of compound [%] for the 24 h injection using an HPLC standard gradient method. Therefore the peak area of the main peak for the first injection (AUt0) is determined and set as 100%. Peak area of the main peak is determined also for the 24 h injection (AU24 h) and expressed as fraction of (AU24 h)/(AUt0)[%]. Analogously, the amount of degraded compound is determined for stability examinations running for more than 1 day, e.g., for 3 days.

Sequence of PAFR (P25105 whole entry): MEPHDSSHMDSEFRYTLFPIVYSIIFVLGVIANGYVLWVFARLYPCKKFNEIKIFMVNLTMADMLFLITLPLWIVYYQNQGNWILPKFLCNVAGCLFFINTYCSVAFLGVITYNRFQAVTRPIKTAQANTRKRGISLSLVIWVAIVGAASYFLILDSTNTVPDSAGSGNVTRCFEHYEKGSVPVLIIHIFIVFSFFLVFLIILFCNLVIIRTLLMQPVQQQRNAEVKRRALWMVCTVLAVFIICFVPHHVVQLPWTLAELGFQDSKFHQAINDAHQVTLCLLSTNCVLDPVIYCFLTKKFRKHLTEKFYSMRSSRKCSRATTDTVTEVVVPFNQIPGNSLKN
Sequence of PAF (P25105 whole entry): as above

Compound | PAF-antagonistic activity relative to racemate (PAF) | PAF-antagonistic activity relative to racemate (PAF; listed as Compound B S-configured enantiomer) | IC50 (PAFR; HEK293 cells overexpressing human PAFR, PAF ligand 11 nM, Table 2) | IC50 (PAFR; dedicated head-to-head comparison assay run: cyclopropylene vs di-methyl / cyclobutylene analogues) | Amount of degradation after 3 d at 40° C. in ACN/0.1M aq. HCl [1]
Cc1nnc2n1-c1sc(CCC(=O)N3CCOCC3)cc1C(c1ccccc1Cl)=NC2C (stereo not drawn) [example 1 of EP0368175A1 S-configured isomer] | S-configured isomer with several times | several times stronger |  |  | 
Cc1nnc2n1-c1sc3c(c1C(c1ccccc1Cl)=NC21CC1)C[C@H](C(=O)N[C@@H]1CCC(F)(F)C1)C3 [Example 124] |  |  | 2.4 nM | 2.6 nM | 2.5%
